Test results: patent US5431896A, “Microbial immunoregulant” (Merck & Co., Inc., priority 1992, dated 1995)
Values joined by “and” are separate entries in the source; they are usually repeats but may differ in a detail not shown here. Equal values may be shown once. “Also recorded” adds a separate entry of the source. Read-outs that look alike come from different tables or passages of the source.

Tests used:
mouse T lymphocytes = test: T-cell proliferation assay (ionomycin plus PMA induced T-cell stimulation, tritiated thymidine uptake); assay type: cell-based, C57B1/6 mice; details: for immunosuppressive activity by the T-cell proliferation assay: qualitative statement
Procedure: The principle of this assay is to measure the proliferation of mouse T lymphocytes stimulated with the combination of ionomycin plus PMA. A positive sample in this assay will inhibit T-cell proliferation, as indicated by reduced tritiated thymidine uptake.
Cells were pelleted by centrifugation at 1500 rpm for 8 minutes. Contaminating red cells were removed by treating the pellet with ammonium chloride lysing buffer (GIBCO) for 2 minutes at 4° C. Cold medium was added and cells were again centrifuged at 1500 rpm for 8 minutes. T lymphocytes were then isolated by separation of the cell suspension on nylon wool columns as follows: Nylon wool columns were prepared by packing approximately 4 grams of washed and dried nylon wool into 20 ml plastic syringes. The columns were sterilized by autoclaving at 250° F. for 30 minutes. Nylon wool columns were wetted with warm (37° C.) culture medium and rinsed with the same medium. Washed spleen cells resuspended in warm medium were slowly applied to the nylon wool. The columns were then incubated in an upright position at 37° C. for 1 hour. Non-adherent T lymphocytes were eluted from the columns with warm culture medium and the cell suspensions were spun as above.
The cell suspension was immediately distributed into 96 well flat-bottom microculture plates (Costar) at 200 μl/well. […] The proliferation of T lymphocytes was assessed by measurement of tritiated thymidine incorporation. After 44 hours of culturing, the cells were pulse-labelled with 2 μCi/well of tritiated thymidine (NEN, Cambridge, Mass.). After another 4 hours of incubation, cultures were harvested on glass fiber filters using a multiple sample harvester. Radioactivity of filter discs corresponding to individual wells was measured by standard liquid scintillation counting methods (Betacounter). Mean counts per minute of replicate wells were calculated and the results expressed as percent inhibition of tritiated thymidine uptake (proliferation) as follows: [formula]

[1] = reputed; EPO Publication No. 0184162; cited from earlier work
Solubility = assay type: physicochemical; details: methanol

| Solubility (Solubility) | SMILES | inhibition at 0.01 µg/mL (mouse T lymphocytes; Mus musculus, T-lymphocyte, 48 h, read-out: inhibition of T-cell proliferation by standard) | potency relative to cyclosporin [1] | IC50 (mouse T lymphocytes; Mus musculus, T-lymphocyte, 48 h, read-out: IC50 (inhibition of T-cell proliferation)) | inhibition at 0.00011 µg/mL (mouse T lymphocytes; Mus musculus, T-lymphocyte, L-687,819 0.11 ng/ml, 48 h) | inhibition at 0.00026 µg/mL (mouse T lymphocytes; Mus musculus, T-lymphocyte, L-687,819 0.26 ng/ml, 48 h) | inhibition at 0.00058 µg/mL (mouse T lymphocytes; Mus musculus, T-lymphocyte, L-687,819 0.58 ng/ml, 48 h) | inhibition at 0.0013 µg/mL (mouse T lymphocytes; Mus musculus, T-lymphocyte, L-687,819 1.3 ng/ml, 48 h) | inhibition at 0.0029 µg/mL (mouse T lymphocytes; Mus musculus, T-lymphocyte, L-687,819 2.9 ng/ml, 48 h) | inhibition at 0.0044 µg/mL (mouse T lymphocytes; Mus musculus, T-lymphocyte, L-687,819 4.4 ng/ml, 48 h) | inhibition at 0.0066 µg/mL (mouse T lymphocytes; Mus musculus, T-lymphocyte, L-687,819 6.6 ng/ml, 48 h) | inhibition at 0.01 µg/mL (mouse T lymphocytes; Mus musculus, T-lymphocyte, L-687,819 10 ng/ml, 48 h, read-out: % Inhibition of T-cell proliferation) | inhibition at 0.1 µg/mL (mouse T lymphocytes; Mus musculus, T-lymphocyte, L-687,819 100 ng/ml, 48 h) | Inhibition of proliferation on addition of recombinant human IL2 (mouse T lymphocytes; addition of 50 units/ml recombinant human IL2) | immunosuppressive activity by the T-cell proliferation assay (mouse T lymphocytes) | immunosuppressive activity by the T-cell proliferation assay (mouse T lymphocytes; listed as minor component) |
| --- | --- | --- | --- | --- | --- | --- | --- | --- | --- | --- | --- | --- | --- | --- | --- | --- |
| – | C=CC[C@@H]1/C=C(\C)C[C@H](C)C[C@H](OC)[C@H]2O[C@@](O)(C(=O)C(=O)N3CCCC[C@H]3C(=O)O[C@H](/C(C)=C/[C@@H]3CC[C@@H](O)[C@H](OC)C3)[C@H](C)[C@@H](O)CC1=O)[C@H](C)C[C@@H]2OC [FK-506, reference compound] | 99% | 100 times | – | – | – | – | – | – | – | – | – | – | – | – | – |
| Solubility in methanol | CO[C@H]1C[C@@H](C)C/C(C)=C/[C@@H](C)C(=O)C[C@H](O)[C@@H](C)[C@@H](/C(C)=C/[C@@H]2CC[C@@H](O)[C@H](O)C2)OC(=O)[C@@H]2CCCCN2C(=O)C(=O)[C@]2(O)O[C@H]1[C@@H](OC)C[C@H]2C [L-687,819] | – | – | 0.007 µg/mL and 9.17 nM | 9.5% | 9.1% | 0% | 0% | 0% | 15.9% | 51.3% | 76.1% | 98.8% | reversed | positive immunosuppressive activity; also recorded: positive inhibition of T-cell activation | shown to possess immunosuppressive activity |
